Data published in PMC11417994, “Cyclohexanediamine Triazole (CHDT) Functionalization Enables Labeling of Target Molecules with Al^18F/^68Ga/^111In” (Bioconjugate Chemistry, 2024).
Several values for one entry are separate records, joined by “and”; a condition that tells them apart may be missing. Identical values can stand only once.

How the values were obtained:
PSMA [1] = target: T1, PSMA (Homo sapiens, UniProt Q04609); assay: Saturation binding (surface-bound and internalized), intact LNCaP cells as monolayer
T1 construct: Detection of endogenous PSMA expression in LNCaP and PC3 cells relative to β-actin expression by Western; host or cells: LNCaP human prostate carcinoma cells (monolayer, spheroids or Potter-Elvehjem homogenates)
T1 sequence (Q04609 whole entry): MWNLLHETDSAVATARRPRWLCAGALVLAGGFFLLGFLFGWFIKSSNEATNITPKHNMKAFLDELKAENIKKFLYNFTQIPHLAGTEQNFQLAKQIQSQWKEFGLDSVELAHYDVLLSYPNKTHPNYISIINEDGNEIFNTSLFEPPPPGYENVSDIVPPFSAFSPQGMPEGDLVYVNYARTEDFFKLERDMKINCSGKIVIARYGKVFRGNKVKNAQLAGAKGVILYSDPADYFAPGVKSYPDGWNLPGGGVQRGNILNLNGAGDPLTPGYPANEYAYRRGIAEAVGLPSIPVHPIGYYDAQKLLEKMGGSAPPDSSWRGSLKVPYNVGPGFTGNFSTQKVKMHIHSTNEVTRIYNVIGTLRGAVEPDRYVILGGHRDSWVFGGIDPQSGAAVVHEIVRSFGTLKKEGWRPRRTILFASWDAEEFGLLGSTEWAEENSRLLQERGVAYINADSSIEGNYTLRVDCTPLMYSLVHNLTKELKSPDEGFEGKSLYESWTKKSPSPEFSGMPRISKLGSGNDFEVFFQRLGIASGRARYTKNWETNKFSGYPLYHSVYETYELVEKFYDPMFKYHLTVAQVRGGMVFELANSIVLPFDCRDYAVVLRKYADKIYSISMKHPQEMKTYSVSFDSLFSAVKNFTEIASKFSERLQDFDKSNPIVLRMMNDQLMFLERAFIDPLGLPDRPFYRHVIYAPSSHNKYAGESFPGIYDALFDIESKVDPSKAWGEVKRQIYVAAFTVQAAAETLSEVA
From the text: (§1) In addition to assessing the binding affinities for nonlabeled CHDT-PSMA-1/2/3, we sought to characterize the saturation binding of the Al^18F-, ^68Ga-, and ^111In-labeled compounds using LNCaP cells cultured in monolayers and as spheroids. The saturation binding curves for Al[^18F]F-CHDT-PSMA-1/2/3 are depicted in Figure 3, while the graphs for [^18F]PSMA-1007 and ^68Ga- and ^111In-labeled CHDT-PSMA-1/2/3 can be found in Figures S7–S9 in the Supporting Information. The binding parameters (Kd and Bmax) for Al[^18F]F-CHDT-PSMA-1/2/3 and [^18F]PSMA-1007 are summarized in Table 3 (for the ^68Ga- and ^111In-labeled compounds see Tables S4 and S5 in the Supporting Information). For the saturation binding assays, we recorded surface-bound radioligand (named “binding”), which refers to bound radioligand that can be removed by acid wash, and internalized or acid-resistant radioligand (named “internalization”), which refers to radioligand that remains cell-bound after acid wash. Consequently, two saturation binding plots were obtained and two sets of binding parameters (Kd/Bmax and Kd,int/Bmax,int) were derived.
(§2) For saturation assays in well plates, monolayers of LNCaP (sowing 5 × 10^4 cells/well in 48-well plates 2 days before the assay), as well as LNCaP spheroids were incubated with radiolabeled CHDT-PSMA-1/2/3 and PSMA-1007 (0.2 nM to 100 nM) with adjacent samples receiving KuE (0.8 mM) at 37 °C for 2 h. The number of experiments can be derived from the data in the Tables S4, S5, and S7 in the Supporting Information. After removing the incubation medium and washing of cells with ice-cold PBS (containing Mg^2+ and Ca^2+) the surface-bound activity was stripped with 4 °C cold acid-wash buffer (0.2 M glycine, 0.15 M NaCl, pH 3.0) for 10 min. The acid wash buffer was transferred from the wells to measuring tubes, as was the PBS buffer after washing once. Cytosolic activity (internalized radioligand) was determined after treatment with cell lysis buffer (1% SDS in 0.1 M NaOH) at 37 °C for 30 min. Cell surface and cytosolic activity were measured separately in a gamma counter. Time-depending internalization assays were performed only with cells in monolayer. The incubation (radioligand concentration 13 nM) for these assays was terminated after 10 min, 1 and 3 h, with ^111In and ^177Lu additionally after 24 and 48 h at 37 °C, respectively. During the internalization assays adjacent samples received KuE (0.8 mM) for PSMA blocking, methyl-β-cyclodextrin (MβCD; 3 mM) or KuE together with MβCD, 1 h before radioligand application. The number of experiments can be derived from the data of Figure S11 and associated table and from Table S8 in the Supporting Information.
(§3) Dissociations constants (Kd and Kd,int), as well as maximal binding capacities (Bmax and Bmax,int), were derived from specific binding data by nonlinear regression according to the model of “One site-specific binding” as implemented in GraphPad Prism 10. Protein content was determined using the bicinchoninic acid protein assay kit (Pierce, Thermo Scientific) to calculate the binding capacities in pmol/mg and for the time-depending internalization the internalized percent of administrated dose per μg protein (% AD/μg protein).

[2] = n-Octanol/PBS distribution coefficient (logD7.4); type: physicochemical; settings: Table S1 individual values
Method: The log D7.4 values were determined as follows: 500 μL of n-octanol and 450 μL of PBS (pH 7.4) were premixed prior to the addition of 50 μL of the respective radiolabeled compound. The mixture was vigorously stirred for 30 min at 22 °C, and thereafter centrifuged for 5 min at 7,500g at 22 °C. Aliquots of the n-octanol and the aqueous phases were transferred to measuring tubes, and the activity counts in both phases were measured in a gamma counter (Hidex Deutschland Vertrieb GmbH, Germany). The logarithm of the quotient of the activity counts from the n-octanol and the aqueous phase was calculated, which is equal to the log D7.4 value.

[3] = Serum stability assay in human serum (radio-TLC/radio-HPLC); type: in vitro ADME; settings: 37 °C, radio-TLC; for Percentage of intact radioligand after 3 h in human serum: Table 1 mean ± SEM, Table S1 individual values
Method: To investigate the serum stability of the radiolabeled CHDTA-PSMA-1/2/3, human serum (frozen, from male AB clotted whole blood; Sigma-Aldrich/Merck) was centrifuged for 5 min at 20,000g at 4 °C after thawing. The supernatant was sterile filtrated (filter pore 0.2 μm). Four parts serum and one part of radioligand were incubated at 37 °C with shaking. Aliquots were taken after 3 h and for the ^111In-labeled compounds also after 24 and 48 h, and residual intact radiolabeled compound was determined by radio-TLC and/or radio-HPLC. For analysis by radio-HPLC, the aliquots were mixed with Supersol (mixture for protein precipitation that consists of 20% ethanol, 0.5% Triton X-100, 5 mM EDTA and 0.1% saponin)[72] and kept on ice for 5 min. After centrifugation for 5 min at 20,000g at 4 °C, the supernatant was used for radio-HPLC analysis.

PSMA [4] = target: T1, PSMA; assay: Competition binding assay, LNCaP cell homogenates, radioligand [177Lu]Lu-PSMA-617; settings: nonlabeled compounds; [177Lu]Lu-PSMA-617 12 nM; 37 °C, 60 min; Table 2 mean (SEM), Table S3 individual experiments and mean
Method: The binding affinity of the nonlabeled CHDT-PSMA-1/2/3, PSMA-1007, PSMA-617, and KuE was assessed in competition binding assays using LNCaP cell homogenates (∼1 × 10^6 cells/mL using Potter-Elvehjem) and the radioligand [^177Lu]Lu-PSMA-617 (n = 5 for CHDT-PSMA-1; n = 4 for CHDT-PSMA-2/3; n = 2 for PSMA-1007; n = 8 for PSMA-617; n = 6 for KuE). […] The assays were performed in a final volume of 200 μL. The incubation was stopped by washing the homogenate with cold PBS four times using a filter (Whatman GF/C, 90 min presoaked in 0.3% polyethylenimine) in a cell harvester (Brandel, USA). The radioactivity bound to the filter was measured in a gamma counter. Filter binding was determined for adjacent samples without cell homogenate. The experiments were performed two to four times in triplicates or quadruplicates. Inhibitory constants (Ki) were derived from nonlinear regression according to the model of “One site – Fit Ki” as implemented in GraphPad Prism 10. The Kd value of [^177Lu]Lu-PSMA-617 was determined in saturation binding assays using LNCaP cell homogenates to be 15.2 (±2.1) nM.

PSMA [5] = target: T1, PSMA; assay: Saturation binding (surface-bound and internalized), LNCaP spheroids
From the text: as §1
For the formation of spheroids, the LNCaP cells were incubated overnight in a normal culture bottle with biocompatible nanoparticles ([…] with 80 μL of a suspension consisting of Au, Fe2O3 and poly-L-lysine called Nanoshuttle, Greiner Bio-One GmbH, Germany). After harvesting and cell counting, 10,000 cells/well of a 24-well plate or 7,000 cells/well of a 96-well plate (cell-repellent plates) were sown. The well plates were placed on matching plates with button magnets (Greiner Bio-One GmbH, Germany). The magnetized LNCaP cells formed suitable spheroids that were used after 5 d.
as §2, §3

[6] = same conditions; cited from earlier work
PSMA [7] = target: PSMA; design: method as in PMID 22369515; settings: cited from earlier work
[8] = Al^18F-labeled conjugate or [18F]PSMA-1007, acid-resistant fraction, read-out: Kd,int (internalization)
[9] = Al^18F-labeled conjugate or [18F]PSMA-1007, surface-bound
[10] = Al^18F-labeled conjugate or [18F]PSMA-1007, surface-bound, 37 °C, 2 h, read-out: Kd (binding)
[11] = pH 7.4, radiolabel Al^18F, Table 1 mean ± SEM of three experiments
[12] = pH 7.4, radiolabel ^68Ga, Table 1 mean ± SEM
[13] = pH 7.4, radiolabel ^111In, Table 1 mean ± SEM
[14] = Al^18F-labeled conjugate or [18F]PSMA-1007, surface-bound, read-out: Kd (binding)
[15] = [111In]In-labeled conjugate, surface-bound

| Compound | Kd (PSMA [1]; [8]) | Bmax (binding) (PSMA [1]; [9]) | Kd (PSMA [1]; [10]) | logD [2, 11] | logD [2, 12] | logD [2, 13] | Percentage of intact radioligand after 3 h in human serum ([3]; radiolabel Al^18F) | Percentage of intact radioligand after 3 h in human serum ([3]; radiolabel ^68Ga) | Percentage of intact radioligand after 3 h in human serum ([3]; radiolabel ^111In, 3 h) | Percentage of intact radioligand in human serum after 24 h (*) ([3]; radiolabel ^111In) | Percentage of intact radioligand in human serum after 48 h (**) ([3]; radiolabel ^111In) | Ki (PSMA [4]) | Kd (PSMA [5]; [8]) | Kd (PSMA [5]; [14]) | Bmax,int (internalization) (PSMA [5]; [111In]In-labeled conjugate) | 64Cu-transchelation in human serum [6] | other results |
| --- | --- | --- | --- | --- | --- | --- | --- | --- | --- | --- | --- | --- | --- | --- | --- | --- | --- |
| O=C(O)CCC(NC(=O)NC(CCCCNC(=O)Cn1cc(CN(CC(=O)O)[C@@H]2CCCC[C@H]2N(CC(=O)O)CC(=O)O)nn1)C(=O)O)C(=O)O (mixture of isomers) [CHDT-PSMA-1] | 18.4 ± 7.3 nM | 1.87 ± 0.57 pmol/mg | 26.4 ± 11 nM | -3.6 | -3.36 | -4.23 | 98.9% and 99.0% and 98.8% and 98.9 ± 0.1% | 98.8% and 94.4% and 96.6 ± 2.2 % | 99.7% and 99.3% and 99.4% and 99.5 ± 0.1% | 99.8% and 99.5% and 99.6 ± 0.1% | 99.7% and 99.3% and 98.9% and 99.3 ± 0.2% | 85.5 nM and 120 nM and 86.9 nM and 152 nM and 132 nM and 115 nM | 37.4 ± 10.7 nM | 41.5 ± 26.4 nM | 0.03 pmol/mg and 0.06 pmol/mg and 0.04 pmol/mg | – | Bmax (binding) (PSMA [5]; [9]): 1.49 ± 0.36 pmol/mg |
| O=C(O)CCC(NC(=O)NC(CCCCNC(=O)[C@@H](Cc1cccc2ccccc12)NC(=O)CCCCCn1cc(CN(CC(=O)O)[C@@H]2CCCC[C@H]2N(CC(=O)O)CC(=O)O)nn1)C(=O)O)C(=O)O (mixture of isomers) [CHDT-PSMA-2] | 14.4 ± 4.8 nM | 1.33 ± 0.10 pmol/mg | 12.9 ± 4 nM | -3.34 | -3.11 | -3.44 | 99.3% and 98.7% and 99.1 ± 0.2% | 97.7% and 97.4% and 97.0% and 97.6 ± 0.1% | 99.6% and 98.3% and 98.6% and 98.8 ± 0.4% | 98.9% and 98.8% and 97.6% and 98.4 ± 0.4% | 99.9% and 98.5% and 97.6% and 98.7 ± 0.7% | 48.1 nM and 71.2 nM and 40.5 nM and 34.5 nM and 49 nM | 15.7 ± 0.8 nM | 15.8 ± 4.4 nM | 0.20 pmol/mg and 0.10 pmol/mg and 0.15 pmol/mg | – | Bmax,int (internalization) (PSMA [1]; [111In]In-labeled conjugate): 0.25 pmol/mg and 0.17 pmol/mg and 0.21 pmol/mg; Bmax (binding) (PSMA [5]; [9]): 1.07 ± 0.13 pmol/mg; Bmax (binding) (PSMA [5]; [15]): 0.15 pmol/mg and 0.25 pmol/mg and 0.20 pmol/mg |
| O=C(O)CCC(NC(=O)NC(CCCCNC(=O)[C@H](Cc1ccc2ccccc2c1)NC(=O)[C@H]1CC[C@H](CNC(=O)CCCCn2cc(CN(CC(=O)O)[C@@H]3CCCC[C@H]3N(CC(=O)O)CC(=O)O)nn2)CC1)C(=O)O)C(=O)O (mixture of isomers) [CHDT-PSMA-3] | 14.4 ± 7.3 nM | 2.18 ± 0.97 pmol/mg | 19.7 ± 8.4 nM | -3.43 | -3.09 | -3.87 | 99.2% and 99.6% and 99.3 ± 0.1% | 98.6% and 99.6% and 99.3% and 99.1 ± 0.4% | 99.5% and 98.8% and 99.2% and 99.2 ± 0.2% | 98.9% and 99.6% and 99.1 ± 0.2% | 99.9% and 99.5% and 98.7% and 99.4 ± 0.4% | 7.65 nM and 3.21 nM and 9.15 nM and 12.6 nM and 8.1 nM | 36.4 ± 14.6 nM | 38.6 ± 25.8 nM | 0.31 pmol/mg and 0.33 pmol/mg and 0.32 pmol/mg | – | Bmax,int (internalization) (PSMA [1]; [111In]In-labeled conjugate): 0.65 pmol/mg and 0.49 pmol/mg and 0.57 pmol/mg; Bmax (binding) (PSMA [1]; [15]): 0.50 pmol/mg and 0.91 pmol/mg and 0.70 pmol/mg; Bmax,int (internalization) (PSMA [5]; [68Ga]Ga-labeled conjugate, only one assay): 0.75 pmol/mg; Bmax (binding) (PSMA [5]; [15]): 0.21 pmol/mg and 0.40 pmol/mg and 0.30 pmol/mg |
| O=C(O)CN1CCN(CC(=O)O)CCN(CC(=O)O)CCN(CC(=O)O)CC1 [DOTA] | – | – | – | – | – | – | – | – | – | – | – | – | – | – | – | only minimal | – |
| O=C(O)CN1CCN(CC(=O)O)CCN(CC(=O)O)CC1 [NOTA] | – | – | – | – | – | – | – | – | – | – | – | – | – | – | – | only minimal | – |
| O=C(O)CCc1ccc(O)c(CN(CCN(CC(=O)O)Cc2cc(CCC(=O)NCCCCCC(=O)NCCCC[C@H](NC(=O)N[C@@H](CCC(=O)O)C(=O)O)C(=O)O)ccc2O)CC(=O)O)c1 [PSMA-11] | – | – | – | – | – | – | – | – | – | – | – | – | – | – | – | – | Ki (PSMA [7]): 12 nM |
| O=C(O)CN1CCCN(CC(=O)O)CCN(CC(=O)O)CCCN(CC(=O)O)CC1 [TETA] | – | – | – | – | – | – | – | – | – | – | – | – | – | – | – | only minimal | – |
| NC12CNCCNCC(N)(CNCCNC1)CNCCNC2 [diamSar] | – | – | – | – | – | – | – | – | – | – | – | – | – | – | – | only minimal | – |
